Reference: patent US8993007B2, “Preparation used for anti-tachyarrhythmia and its preparation method” (Heshengyuan of Chinese Medicine Research & Development …, priority 2012, dated 2015)
“And” between values parts separate entries of the source, which are not always exact repeats. Equal entries are not always repeated.

Columns and labels:
[1] = test system: Wistar male rats; experiment: MI areas after ligation of left anterior descending artery; type: in vivo; conditions: Metoprolol 2.25 mg/kg, Shengsong Yangxin capsule 0.432 g/kg; intragastric 7 days
Protocol: (§1) The rats were fixed on their back on board and chloral hydrate (10 mg/kg) intraperitoneally administered. Between the rib 4 and 5 on the left side, an open was cut into pleural cavity and the pericardium was torn open, then the heart was extruded by light pressure to the thorax. Two mm beneath left auricle, a ligation was done on left anterior descending artery with surgical suture (USP 0) and the heart was put back to the thorax. The cut open was closed and stitched. Penicillin (up to 80,000 unit) was used for the incision to protect again infection.
Sixty-six rats models were randomly assigned to 6 groups, 11 for each. They were the model group, the Metoprolol group, the Shengsong Yangxin capsule group, the large-dose extract group, the moderate-dose extract group and the small-dose extract group.
1) The Metoprolol group. Due to the administration of β receptor inhibitor after myocardial infarction (MI), Metoprolol was administered initially at small dose of 12.5 mg, bid, that is, the dosage was 25×0.018×5=2.25 mg/kg. Metoprolol 67.5 mg was accurately weighed and evenly dissolved with 300 ml normal saline (0.9%). […]
The hearts of the rats were harvested 2 hours after the last treatments were administered and the residues of blood in the heart chambers were washed with normal saline. […] Armed with the MPIDS-500, two technicians measured the MI areas on both sides of the slices. […]

[2] = test system: Na^+—K^+-ATPase; experiment: Na+-K+-ATPase concentration in cardiac tissue homogenate of MI rats (assay kit); type: in vivo; conditions: Metoprolol, Shengsong Yangxin capsule (doses per b188: 2.25 mg/kg, 0.432 g/kg), intragastric 7 days
Protocol: as §1, with “beneath the” for “beneath”
(§2) Forty-two rats models were randomly assigned to 6 groups, 7 for each. They were the model group, the Metoprolol group, the Shengsong Yangxin capsule group, the large-dose extract group, the moderate-dose extract group, the small-dose extract group. Added were a control group of 6 rats and sham operation group of 6 rats. Totally there were 8 groups.
(§3) 1.2.3 Medicines Doses and Preparation. See Section 1.2.3 in the Experiment Example 1.
(§4) Starting from the next day after model establishment, the medicines were all administered intragastrically to the relevant groups accordingly, while the model group and sham operation group were given normal saline. The treatment course lasted for 7 days. […]

[3] = test system: Ca^2+-ATPase; experiment: Ca2+-ATPase concentration in cardiac tissue homogenate of MI rats (assay kit); type: in vivo; conditions: Metoprolol, Shengsong Yangxin capsule (doses per b188: 2.25 mg/kg, 0.432 g/kg), intragastric 7 days
Protocol: as §1, with “beneath the” for “beneath”
as §2, §3, §4

[4] = test system: connexin 43; experiment: Western Blot test of connexin 43 in MI areas; type: in vivo, rats; conditions: Metoprolol, Shengsong Yangxin capsule, intragastric 7 days
Protocol: as §1, with “fixed the” for “fixed”, “(3.5%, […]” for “(10”
Eighty-four rats' models were randomly assigned to 6 groups, 14 for each. They were the model group, the Metoprolol group, the Shengsong Yangxin capsule group, the large-dose extract group, the moderate-dose extract group, the small-dose extract group. Two more groups added were the control group of 13 rats and sham operation group of 13 rats. Some rats were dead the next day before intragastrical administration: 1 in the sham operation group, model group, Metoprolol group, Shengsong Yangxin capsule group, large-dose extract group and moderate-dose extract group respectively and 2 in the small-dose extract group.
1.2.3 Medicines Doses and Preparation. See Section 1.2.3 in the Experiment Example 1. […]

[5] = test system: connexin 43; experiment: Immunohistochemical expression of connexin 43 in left ventricle; type: in vivo, rats; conditions: immunohistochemistry; Metoprolol, Shengsong Yangxin capsule; intragastric 7 days
Protocol: (§5) Two primary antibodies were used in immunohistochemical test. The connexin 43 rabbit ploy-colonal antibody was supplied by CST, USA, Batch No. 08/2011 and phospho-connexin 43 (ser 368) rabbit ploy-colonal antibody was supplied by Santa Cruz, USA, Batch no. G2011. SP 2-step reagent kit for secondary antibody was supplied by Beijing Zhongshan Goldenspace Biotechnology Co. Ltd., Batch no. K116812C. Anhydrous ethyl alcohol was supplied by Beijing Chemical Works, 2500 ml/bottle, Batch no. 20110808.95% ethanol was supplied by Beijing Chemical Works, 2500 ml/bottle, Batch no. 20110808. Formalin solution was supplied by Xilong Chemical Corporation, 500 ml/bottle, Batch no. 1110082. Xylene solution was supplied by Beijing Chemical Works, 500 ml/bottle, Batch no. 20110808. Paraffin section (54-56° C.) was supplied by Beijing Beihuakangtai Reagents Co. Ltd., Batch no. 20110428. DAB reagent kit was supplied by Beijing ComWin Biotech Co. Ltd., Batch no. 03911H. Polylysine, strength 25 mg, was supplied by Shanghai Sigma-aldrich Trading Co. Ltd., Batch no. P1399. Microscopic cover glass (24×24 mm) and slide glass (model 7105) were supplied by Beijing Chuanganghuaxin Experimental Instrument Co. Ltd. Stainless steel pressure port, microwave oven, thermostatic waterbath, immunohistochemistry kit, antigen retrieval kit, and microscope. […]

[6] = test system: phospho-connexin 43 (ser 368); experiment: Immunohistochemical expression of phospho-connexin 43 in left ventricle; type: in vivo, rats; conditions: immunohistochemistry; Metoprolol, Shengsong Yangxin capsule; intragastric 7 days
Protocol: as §5

[7] = test system: CD mice; experiment: CaCl2-induced arrhythmia, efficacy screening test; type: in vivo; conditions: CaCl2 tail vein 45 min after duodenal administration, amiodarone 78 mg/kg, NO.1 18.2, NO.2 157.6, NO.3 9.1, NO.4 462, NO.5 139, NO.6 1.16 mg/kg, NO.7 1.3 g/kg; for Duration (of arrhythmia), single animals: animals 1-10; for Duration (of arrhythmia), Mean: mean of 10 animals
Protocol: 90 CD mice, male, weighing 28-30 g, Beijing Vital River Laboratory Animal Technology Co., license number Sea (Beijing) 2006-0009. […] Before administration each drug was prepared to the desired concentration with physiological saline, duodenal route of administration, the dose of 10 mL/kg. […] Observed ECG whether induced arrhythmia, recorded the duration of ventricular arrhythmia; and the results were statistically analyzed.

Row | SMILES | MI area/total area of ventricular chamber (%) [1] | Concentrations of Na^+-k^+-ATPase [2] | The concentrations of Ca^2+-ATPase [3] | Gray degree of Connexin 43 [4] | IOD of connexin 43 [5] | expression Area of connexin 43 [5] | IOD values of phospho-connexin 43 [6] | expression Area of phospho-connexin 43 [6] | Duration (of arrhythmia), single animals [7] | Duration (of arrhythmia), Mean [7]
1 | COCCc1ccc(OCC(O)CNC(C)C)cc1 (stereo not drawn) [Metoprolol] | 19.0847 ± 2.819 % | 10.1177 ± 0.167**ΔΔ U/ml | 17.5339 ± 0.2439**ΔΔ U/ml | 0.5443 ± 0.1523**ΔΔ | 4535.0243 ± 1743**ΔΔ | 17723.1800 ± 6672**ΔΔ | 2686.5321 ± 1725**ΔΔ | 13283.8000 ± 8070**ΔΔ |  | 
2 | COc1cc2c(cc1OC)[C@@H]1Cc3ccc(OC)c(OC)c3CN1CC2 [Sample6, Tetrahydropalmatine] |  |  |  |  |  |  |  |  | 70 s (2×) and 79 s (2×) and 100 s and 47 s and 181 s and 104 s and 130 s and 80 s | 94.0 s
3 | CCCCc1oc2ccccc2c1C(=O)c1cc(I)c(OCCN(CC)CC)c(I)c1 [amiodarone] |  |  |  |  |  |  |  |  | 60 s and 106 s and 76 s and 53 s and 104 s and 99 s and 0 s and 86 s and 88 s and 120 s | 79.2 s
